# Key:
# [1] = tested on: formalin-induced ocular pain (blinking); test: formalin-induced model of ocular pain in the rat (inhibition of blinking after topical ocular dosing); conditions: in vivo
# [2] = tested on: mu opioid receptor (vs delta and kappa receptors); conditions: Goodman and Gilman, 8th Edition; cited from earlier work
Compound,% Inhibition (of blink count in first minute vs vehicle) [1],times greater affinity for the mu receptor than for the delta and kappa receptors [2]
COC(=O)N1CCN(C(=O)Cc2ccc(Cl)c(Cl)c2)C(CN2CCCC2)C1 (racemic) [GR 89696],98,
CN1CC[C@]23c4c5ccc(O)c4O[C@H]2[C@@H](O)C=C[C@H]3[C@H]1C5 [Morphine],8,ten

# From patent publication US6191126A, “Topical use of κ opioid agonists to treat ocular pain” (Alcon Laboratories, Inc., priority 1999, dated 2001)
